# According to patent US9266817B2, “Catecholamine derivatives for obesity and neurological disorders” (EMORY UNIVERSITY, priority 2009, dated 2016):
# What was measured:
# [1] = molecular target: T1, TrkB (Mus musculus, UniProt P15209); assay: TrkB activation in cortical neurons cultured from BDNF-null mice; type: cell-based; conditions: 15 min
# T1 construct: endogenous in cells; host or cells: primary cortical neurons from BDNF-null, TrkB +/- cross, TrkC knockout and NET -/- mice
# Text: (§1) Both antidepressants and exercise increase hippocampal BDNF mRNA expression through enhanced 5-HT and/or NE neurotransmission (Siuciak et al., Pharmacol. Biochem. Behav., 56:131-137, 1997; Dias et al., Neuropharmacology, 45:553-563, 2003; Ivy et al., Pharmacol. Biochem. Behav., 75:81-88, 2003; Garza et al., Pharmacol. Biochem. Behav., 77:209-220, 2004). If catecholamines activated TrkB signaling indirectly by promoting BDNF generation, then scavenging BDNF with its specific antibody would be expected to diminish catecholamines-mediated activation of TrkB. Cultured cortical neurons were pretreated with BDNF-IgG for 30 minutes followed by exposure to BDNF (10 ng/ml) or catecholamines (100 nM) for 15 minutes. […] It was then determined whether catecholamines could activate TrkB in neurons cultured from mice carrying a null mutation of BDNF.
# [2] = molecular target: T2, TrkB (Mus musculus, UniProt P15209, F616A); type: in vivo; conditions: 1NMPP1 50 μM; for TrkB tyrosine phosphorylation/activation in mice: L-DOPA 50 mg/kg, DOPS 100 mg/kg
# T2 construct: from tissue; host or cells: mouse brain
# Procedure: The DOPS concentration was 20 mg/ml, the vitamin C concentration was 2 mg/ml, and the benserazide concentration was 5 mg/ml. The vitamin C prevents oxidation of the DOPS, and the benserazide is a peripheral inhibitor of AADC and restricts the production of NE from DOPS to the brain. The compounds were added to a tube, and 20 μl of 10 M HCl was added to each ml of DOPS solution. The appropriate amount of water was added to the tube, and then HCl was added to achieve the desired volume. For example, to make 1 mL of a DOPS solution, 20 mg DOPS, 2 mg vitamin C, and 5 mg benserazide were added to a tube, followed by 980 μL of water and 20 μL of 10 M HCl. The solution was vortexed until all DOPS was dissolved. The DOPS solution was injected subcutaneously in a volume of 50 μl/g of mouse. The appropriate amount of DOPS solution was pipetted into a clean tube, followed by the amount of 10 M NaOH required to exactly neutralize the HCl. The solution was then shaken. The amount of 10 M NaOH is the weight of the mouse in microliters. For example, for a 20 g mouse, pipet 1 ml of the DOPS solution is pipetted into a tube and 20 μL of 10 M NaOH is added. For a 30 g mouse, 1.5 mL of the DOPS solution is pipetted into a tube and 30 μl of 10 M NaOH is added. Two to four month-old TrkBF616A mice were pretreated with 1NMPP1 in drinking water (50 μM) 1 day before L-DOPA (50 mg/kg) or DOPS (100 mg/kg) intraperitoneal injection. At times of 2 hours and 5 hours after drug administration, the L-DOPA or DOPS-treated mice were sacrificed, respectively. The brain lysates were prepared and analyzed by immunoblotting against anti-phospho-TrkB Y816 and TrkA Y794 antibodies.
# (§2) TrkB F616A mice were pretreated with 1NMPP1 (50 μM) before L-DOPA or DOPS administration.
# [3] = molecular target: T3, TrkB extracellular domain (ECD) (Homo sapiens, UniProt Q16620); assay: In vitro binding assay with purified TrkB ECD and 3H-ligands; conditions: purified ECD, 3H-ligand
# T3 construct: purified ECD (extracellular domain) and ICD (intracellular domain) proteins from Trk receptors
# Procedure: (§3) Purified TrkA and TrkB ECD or ICD proteins were incubated with different ^3H-catecholamines at 25° C. for 30 minutes in 1 ml of binding buffer (50 mM Tris-HCl, pH 7.4, 100 mM NaCl, 5 nM ^3H-catecholamines (32000 cpm)). After the incubation, the reaction mixture was loaded on a Whatman glass-fiber filter (GF-B) (Whatman Inc.; Piscataway, N.J.). The mixture was washed with 3×5 ml washing buffer (50 mM Tris-HCl, pH 7.4). The dried filter paper was put into a small vial and subjected to liquid scintillation counter analysis. The value of the dissociate constant and the number of sites were obtained from Scatchard plots by using the equation r/[L]free =n/Kd−r/Kd, where r is the ratio of the concentration of bound ligand to the total protein concentration and n is the number of binding sites.
# (§4) To determine whether catecholamines bind TrkB directly, an in vitro binding assay was conducted with purified ECD (extracellular domain) and ICD (intracellular domain) proteins from Trk receptors and ^3H-catecholamines. […] To determine whether the binding by catecholamines to TrkB receptor caused dimerization, GST-TrkB was co-transfected into HEK293 cells with HA-TrkB, followed by BDNF or monoamines treatment for 15 minutes.
# [4] = molecular target: T4, TrkB (Rattus norvegicus, UniProt Q63604); assay: TrkB activation in cortical neurons after pretreatment with antibodies, receptor antagonists, transporter inhibitors or EDTA (anti-p-TrkB-Y-816 immunoblot); type: cell-based; conditions: BDNF-IgG 30 minutes, then BDNF 10 ng/ml or catecholamines 100 nM, 15 minutes
# T4 construct: endogenous in cells; host or cells: primary rat cortical and hippocampal neurons
# Text: as §1
# To further investigate the specificity of catecholamines in inducing TrkB activation, cortical neurons were pretreated with control IgG or norepinephrine IgG, a rabbit polyclonal antibody for norepinephrine, followed by catecholamines.
# (§5) It was then determined whether catecholamines could activate TrkB in neurons cultured from mice carrying a null mutation of NET.
# (§6) The cell lysates were analyzed by immunoblotting with anti-p-TrkB-Y-816.
# as §6
# A group of primary cortical neurons were pretreated with 1 mM EDTA, and another group of primary cortical neurons were not pretreated. Both groups of primary cortical neurons were then treated with either Zn (100 μM) or a catecholamine (100 nM) for 15 minutes. The neuronal cell lysates were analyzed by immunoblotting with anti-p-TrkB-Y-816 antibody.
# [5] = molecular target: T5, TrkB (Homo sapiens, UniProt Q16620); assay: Tyrosine phosphorylation of TrkB in transfected HEK293 cells; type: cell-based; parameters: expressed in transfected cells; host or cells: HEK293
# Procedure: as §4
# Target sequence in this assay (Q16620 32-822, species assumed): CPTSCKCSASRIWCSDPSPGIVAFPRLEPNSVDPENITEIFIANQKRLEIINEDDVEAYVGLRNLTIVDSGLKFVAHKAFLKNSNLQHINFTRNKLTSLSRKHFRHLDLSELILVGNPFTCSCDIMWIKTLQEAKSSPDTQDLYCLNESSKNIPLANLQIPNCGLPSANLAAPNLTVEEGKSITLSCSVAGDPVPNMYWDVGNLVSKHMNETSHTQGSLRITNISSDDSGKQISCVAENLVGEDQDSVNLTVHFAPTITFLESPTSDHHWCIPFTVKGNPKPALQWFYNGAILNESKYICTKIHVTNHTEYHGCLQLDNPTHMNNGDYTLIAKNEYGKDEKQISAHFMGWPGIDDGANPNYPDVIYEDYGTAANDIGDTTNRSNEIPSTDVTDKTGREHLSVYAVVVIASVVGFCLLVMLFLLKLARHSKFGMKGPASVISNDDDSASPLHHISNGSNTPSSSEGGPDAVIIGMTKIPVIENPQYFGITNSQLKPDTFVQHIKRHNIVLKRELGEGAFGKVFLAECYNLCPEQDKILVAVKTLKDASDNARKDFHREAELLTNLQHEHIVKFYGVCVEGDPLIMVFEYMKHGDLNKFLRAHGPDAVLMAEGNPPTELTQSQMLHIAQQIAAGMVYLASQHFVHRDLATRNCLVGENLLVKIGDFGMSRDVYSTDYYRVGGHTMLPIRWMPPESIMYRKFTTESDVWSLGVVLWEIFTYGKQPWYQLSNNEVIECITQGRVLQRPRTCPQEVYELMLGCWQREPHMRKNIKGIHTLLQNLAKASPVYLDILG
# [6] = molecular target: T5, TrkB; assay: Activation of transfected TrkB in HEK293 cells with or without DAT or NET; type: cell-based; parameters: expressed in transfected cells; host or cells: HEK293; conditions: NET transfected HEK293 cells
# Target sequence in this assay (Q16620 32-822, species assumed): as above
# [7] = molecular target: T6, TrkB intracellular domain (ICD) (Homo sapiens, UniProt Q16620); assay: In vitro binding assay with purified TrkB ICD and 3H-ligands (Scatchard plot)
# T6 construct: purified ECD (extracellular domain) and ICD (intracellular domain) proteins from Trk receptors
# Procedure: as §3, §4
# [8] = molecular target: T1, TrkB; type: cell-based, mice; conditions: compared to wild-type control neurons
# Procedure: as §5
# [9] = molecular target: TrkA (Homo sapiens, UniProt P04629); conditions: transfected HEK293 cells
# Procedure: as §4
# [10] = molecular target: TrkC (Homo sapiens, UniProt Q16288); conditions: transfected HEK293 cells
# Procedure: as §4
# [11] = molecular target: T7, TrkB F616A (Mus musculus, UniProt P15209, F616A); assay: TrkB phosphorylation in TrkB F616A or TrkA F592A cortical neurons pretreated with K252a or 1NMPP1; type: cell-based, mice; conditions: TrkB F616A knock-in cortical neurons
# T7 construct: endogenous in cells; host or cells: primary cortical neurons from TrkB F616A knock-in mice
# Procedure: as §2
# (§7) On day 7, the primary cortical neurons were pretreated with 100 nM K252a or 1NMPP1 for 30 min, followed by 500 nM ADPP and DDAP. Cell lysates were analyzed by Western blotting.
# [12] = molecular target: T8, TrkB F616A (Mus musculus, UniProt P15209); assay: as above; type: cell-based, mice; conditions: TrkA F592A neurons
# T8 construct: endogenous in cells; host or cells: primary cortical neurons from TrkB F616A knock-in mice
# Procedure: as §2, §7
# [13] = test system: TrkB F616A knockin mice; assay: Kainic acid-induced neuronal apoptosis in TrkB F616A knockin mice (immunoblotting and Caspase-3 ELISA); type: in vivo; conditions: 1NMPP1 16.6 ng/kg 2 days before
# Procedure: To determine whether Compound I-11 (ADPP) and Compound I-8 (DDAP) protect neurons from KA-induced apoptosis, TrkB F616A knockin mice were pretreated with inhibitor 1NMPP1 (16.6 ng/kg) 2 days before the experiment. Compound I-8 (DDAP) or Compound I-11 (ADPP) (50 mg/kg) was orally injected into the mice 2 hours before kainic acid (KA) administration (20 mg/kg). Brain lysates were analyzed by immunoblotting and Caspase-3 ELISA. […] The extent of the protective effect correlates with TrkB activation status by these compounds. Active Caspase-3 ELISA correlated with the immunoblotting results (FIG. 28B, right panel).
# [14] = test system: mice; assay: Forced swim test; type: in vivo; conditions: TrkB F616A knockin mice
# Procedure: Accumulating evidence supports that BDNF plays an essential role in mediating antidepressants' therapeutic effects. Infusion of exogenous BDNF into hippocampus or brain stem has antidepressant-like behavioral effect. A forced swim test is broadly used for screening of potential antidepressant drugs and is widely used to measure antidepressant activity. To explore whether Compound I-11 (ADPP) and Compound I-8 (DDAP) have antidepressant effects like BDNF, forced swim tests were conducted. Adult male mice (2-3 months old, n=8) were randomly submitted, without a pre-swim, to a forced swim test of 6 minutes with immobility recorded in the last 4 minutes. Mice were injected intraperitoneally with saline, Compound I-11 (20 mg/kg), or Compound I-8 (20 mg/kg). The mice were allowed to adapt to the test room for 2 days, and the mice were placed in a clear glass cylinder with a diameter of 16 cm, half-filled with clear water at 24° C.
# To assess whether the behavior responses caused by catecholamine derivatives is mediated by TrkB receptor, TrkB F616A knockin mice were utilized. The mice were subjected to saline or 1NMPP1 inhibitor pretreatment.
# [15] = test system: TrkB F616A cortical neurons; assay: Glutamate-provoked apoptosis of TrkB F616A cortical neurons (TUNEL assay); type: cell-based, mice; parameters: Effect of inhibitor on protective action of norepinephrine: dose or concentration left out as unconfirmed; conditions: glutamate overnight
# Procedure: Norepinephrine has neuroprotective activity against oxidative stress-induced neuronal apoptosis. To investigate whether this protective action by norepinephrine is mediated through TrkB, apoptosis of TrkB F616A cortical neurons was monitored. Primary cortical neurons were pretreated with inhibitors K252a or 1NMPP1 followed by overnight treatment with 50 mM glutamate.
# [16] = molecular target: T5, TrkB; assay: TrkB dimerization, co-immunoprecipitation of GST-TrkB and HA-TrkB in HEK293 cells; type: cell-based; parameters: GST; HA; expressed in transfected cells; host or cells: HEK293; conditions: 15 minutes
# Procedure: as §4
# Target sequence in this assay (Q16620 32-822, species assumed): as above
# Target sequence in this assay (Q16620 32-822, species assumed): as above
# [17] = molecular target: T4, TrkB; assay: Immunofluorescent staining with anti-phospho-TrkB Y816 in primary hippocampal neurons; type: cell-based; conditions: 300 nM, 30 min
# Procedure: Primary Rat Cortical and Hippocampal Neuron Cultures
# Primary hippocampal neurons were seeded on poly-L-lysine coated coverslips in a 12-well plate. After 7 days in vitro, the neurons were treated with 100 ng/ml BDNF or variety of neurotransmitters and 7,8-dihydroxyflavone compound (500 nM) for 30 min, and then washed with PBS. Cells were fixed with 3% formaldehyde in PBS at room temperature for 15 min. The cells were then permeabilized and blocked by 0.4% Triton X-100 and 2% FBS in PBS at room temperature for 15 minutes, washed with PBS three times and treated with anti-MAP2 (1:200) and anti-phospho-TrkB antibodies (1:100). After staining with FITC- or Rhodamine-conjugated secondary antibody, the coverslips were mounted on slides. Fluorescent images were taken by OLYMPUS IX71 fluorescence microscope (Olympus; Center Valley, Pa.).
# To explore whether monoamine neurotransmitters, including catecholamines (see, e.g., FIG. 1), could stimulate TrkB activation, hippocampal neurons were treated with 300 nM of catecholamines, serotonin, and melatonin for 30 min.
# T2 sequence (P15209 32-821 F616A): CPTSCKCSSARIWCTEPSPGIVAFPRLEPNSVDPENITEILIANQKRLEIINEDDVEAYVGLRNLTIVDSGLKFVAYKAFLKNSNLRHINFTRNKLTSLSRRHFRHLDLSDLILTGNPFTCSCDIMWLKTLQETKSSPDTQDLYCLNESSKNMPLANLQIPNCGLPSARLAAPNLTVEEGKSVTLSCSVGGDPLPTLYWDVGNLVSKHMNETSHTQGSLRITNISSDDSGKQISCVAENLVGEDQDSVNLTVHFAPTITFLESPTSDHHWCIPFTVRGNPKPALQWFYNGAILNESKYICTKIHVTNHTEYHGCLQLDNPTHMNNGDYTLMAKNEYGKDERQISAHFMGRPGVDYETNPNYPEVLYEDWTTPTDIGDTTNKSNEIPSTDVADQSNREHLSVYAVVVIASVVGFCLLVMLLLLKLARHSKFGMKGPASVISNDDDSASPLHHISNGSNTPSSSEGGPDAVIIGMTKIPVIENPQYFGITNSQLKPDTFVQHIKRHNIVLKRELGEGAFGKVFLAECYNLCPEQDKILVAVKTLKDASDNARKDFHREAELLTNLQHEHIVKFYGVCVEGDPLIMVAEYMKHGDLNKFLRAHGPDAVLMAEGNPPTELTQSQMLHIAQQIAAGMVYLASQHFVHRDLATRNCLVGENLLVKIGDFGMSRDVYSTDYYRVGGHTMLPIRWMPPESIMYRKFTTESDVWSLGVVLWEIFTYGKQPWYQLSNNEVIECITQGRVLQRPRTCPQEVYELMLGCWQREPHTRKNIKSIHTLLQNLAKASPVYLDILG
# T1 sequence (P15209 32-821): as the sequence (P15209 32-821 F616A) above, with A585F counted along it
# T4 sequence (Q63604 32-821): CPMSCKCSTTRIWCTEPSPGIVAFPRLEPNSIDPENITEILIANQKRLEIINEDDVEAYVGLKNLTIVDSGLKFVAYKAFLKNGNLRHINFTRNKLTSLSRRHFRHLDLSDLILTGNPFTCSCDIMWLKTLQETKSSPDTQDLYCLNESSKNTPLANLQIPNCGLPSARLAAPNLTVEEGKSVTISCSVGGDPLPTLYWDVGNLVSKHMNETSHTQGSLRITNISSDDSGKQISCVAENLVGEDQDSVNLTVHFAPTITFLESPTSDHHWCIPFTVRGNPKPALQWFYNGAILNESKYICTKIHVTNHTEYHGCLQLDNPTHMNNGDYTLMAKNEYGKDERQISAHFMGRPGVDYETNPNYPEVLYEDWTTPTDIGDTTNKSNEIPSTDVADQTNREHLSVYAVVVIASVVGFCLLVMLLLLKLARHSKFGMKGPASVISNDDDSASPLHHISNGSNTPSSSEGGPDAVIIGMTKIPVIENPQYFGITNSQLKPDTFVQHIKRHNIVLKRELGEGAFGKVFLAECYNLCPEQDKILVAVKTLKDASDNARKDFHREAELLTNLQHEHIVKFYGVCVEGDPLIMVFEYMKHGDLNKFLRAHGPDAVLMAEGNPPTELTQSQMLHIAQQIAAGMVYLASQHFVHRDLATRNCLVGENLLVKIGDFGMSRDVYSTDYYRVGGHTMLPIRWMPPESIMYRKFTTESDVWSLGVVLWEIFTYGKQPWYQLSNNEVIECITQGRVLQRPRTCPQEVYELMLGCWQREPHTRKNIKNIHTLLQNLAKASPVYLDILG
# T6 sequence (Q16620 455-822 limits assumed): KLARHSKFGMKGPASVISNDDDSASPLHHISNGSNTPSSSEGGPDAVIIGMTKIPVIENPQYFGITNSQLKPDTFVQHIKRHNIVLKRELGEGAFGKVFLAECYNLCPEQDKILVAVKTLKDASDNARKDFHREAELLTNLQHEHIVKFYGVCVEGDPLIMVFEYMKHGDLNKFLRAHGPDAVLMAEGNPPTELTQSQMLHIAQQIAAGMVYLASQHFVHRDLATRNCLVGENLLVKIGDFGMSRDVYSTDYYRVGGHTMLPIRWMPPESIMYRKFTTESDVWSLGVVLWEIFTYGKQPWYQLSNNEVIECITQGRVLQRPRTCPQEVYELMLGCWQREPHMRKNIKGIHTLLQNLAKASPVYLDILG
# T7 sequence (P15209 32-821 F616A): as the sequence (P15209 32-821 F616A) above
# T8 sequence (P15209 32-821 F616A): as above
# Chain of TrkC (Q16288 32-839, species assumed): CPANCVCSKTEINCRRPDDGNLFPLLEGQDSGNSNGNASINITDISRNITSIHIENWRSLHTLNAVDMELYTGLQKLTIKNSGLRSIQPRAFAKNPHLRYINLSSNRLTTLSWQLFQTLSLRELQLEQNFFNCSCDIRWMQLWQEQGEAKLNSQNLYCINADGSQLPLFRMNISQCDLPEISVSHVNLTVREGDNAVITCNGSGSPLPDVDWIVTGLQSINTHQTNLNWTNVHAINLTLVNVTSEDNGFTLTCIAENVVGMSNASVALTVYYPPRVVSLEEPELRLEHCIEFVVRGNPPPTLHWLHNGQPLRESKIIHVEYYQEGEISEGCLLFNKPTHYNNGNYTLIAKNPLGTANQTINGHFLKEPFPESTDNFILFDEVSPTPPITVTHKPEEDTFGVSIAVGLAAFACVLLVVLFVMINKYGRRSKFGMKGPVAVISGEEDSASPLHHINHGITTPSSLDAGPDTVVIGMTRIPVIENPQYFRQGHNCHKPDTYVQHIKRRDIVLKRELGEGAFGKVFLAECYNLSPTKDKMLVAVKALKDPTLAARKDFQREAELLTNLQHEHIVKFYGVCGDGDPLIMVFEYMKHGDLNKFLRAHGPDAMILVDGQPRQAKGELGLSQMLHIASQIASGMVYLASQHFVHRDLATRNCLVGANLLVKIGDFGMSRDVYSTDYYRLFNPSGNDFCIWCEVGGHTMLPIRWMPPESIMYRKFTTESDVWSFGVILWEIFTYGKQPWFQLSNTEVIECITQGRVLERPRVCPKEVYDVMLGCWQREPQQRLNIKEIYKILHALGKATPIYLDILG
# Chain of TrkA (P04629 33-796, species assumed): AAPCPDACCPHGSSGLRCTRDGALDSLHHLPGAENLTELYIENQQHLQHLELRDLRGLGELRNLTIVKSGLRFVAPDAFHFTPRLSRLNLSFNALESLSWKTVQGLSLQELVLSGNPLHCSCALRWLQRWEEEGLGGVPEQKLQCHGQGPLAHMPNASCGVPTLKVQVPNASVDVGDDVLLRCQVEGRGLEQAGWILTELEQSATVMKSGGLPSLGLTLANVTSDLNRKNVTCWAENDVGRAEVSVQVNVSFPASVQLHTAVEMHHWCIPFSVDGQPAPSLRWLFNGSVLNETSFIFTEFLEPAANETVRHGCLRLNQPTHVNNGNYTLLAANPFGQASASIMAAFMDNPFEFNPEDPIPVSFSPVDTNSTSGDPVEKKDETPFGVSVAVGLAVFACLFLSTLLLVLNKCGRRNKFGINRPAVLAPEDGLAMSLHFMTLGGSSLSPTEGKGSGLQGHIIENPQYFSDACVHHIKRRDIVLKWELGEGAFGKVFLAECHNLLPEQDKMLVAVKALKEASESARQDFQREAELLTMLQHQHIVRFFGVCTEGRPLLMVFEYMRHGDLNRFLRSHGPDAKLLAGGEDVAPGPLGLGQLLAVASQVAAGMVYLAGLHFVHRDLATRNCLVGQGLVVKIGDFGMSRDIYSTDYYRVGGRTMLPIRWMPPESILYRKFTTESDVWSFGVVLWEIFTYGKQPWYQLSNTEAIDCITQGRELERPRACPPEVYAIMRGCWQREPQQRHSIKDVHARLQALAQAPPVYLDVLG
# T3 sequence (Q16620 32-430 limits assumed): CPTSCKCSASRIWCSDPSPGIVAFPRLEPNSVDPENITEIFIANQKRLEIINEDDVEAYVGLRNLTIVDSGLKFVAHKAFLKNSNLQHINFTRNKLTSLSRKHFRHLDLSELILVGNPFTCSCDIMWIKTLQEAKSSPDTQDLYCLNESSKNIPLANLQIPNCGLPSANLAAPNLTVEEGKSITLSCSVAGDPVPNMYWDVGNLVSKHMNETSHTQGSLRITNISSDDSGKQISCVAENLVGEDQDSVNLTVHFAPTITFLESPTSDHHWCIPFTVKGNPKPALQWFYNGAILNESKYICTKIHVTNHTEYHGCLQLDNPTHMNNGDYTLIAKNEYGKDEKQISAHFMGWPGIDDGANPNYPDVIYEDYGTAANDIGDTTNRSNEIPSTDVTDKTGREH
molecule,measurement,setting,value
"O=c1cc(-c2ccccc2)oc2c(O)c(O)ccc12 [7,8-dihydroxyflavone]",Activation of TrkB in BDNF-null cortical neurons,[1],evident activation of TrkB
same,TrkB tyrosine phosphorylation/activation in mice,[2],provoked evident TrkB activation
same,Binding to ECD of TrkB receptor,[3],selectively bound
same,Effect of BDNF-IgG pretreatment on phosphorylation of TrkB induced by the substance,[4],had no effect
CNC[C@H](O)c1ccc(O)c(O)c1 [epinephrine],Tyrosine phosphorylation of TrkB,[5],elicited tyrosine phosphorylation
same,Increase of stimulatory activity by overexpression of NET compared to control cells,[6],approximately 100 fold
same,Binding to ICD of TrkB receptor,"[7]; purified ICD, 3H-ligand",strongest binding activity
same,Kd,"[7]; purified protein, 25° C., 30 minutes, read-out: TrkB binding constants (Scatchard plot)",1100 nM
same,TrkB activation in NET -/- neurons,[8],completely blocked
same,Tyrosine phosphorylation of TrkA,[9],but not in TrkA
same,Tyrosine phosphorylation of TrkC,[10],but not in TrkA or TrkC
CC(C)(C)n1nc(Cc2cccc3ccccc23)c2c(N)ncnc21 [Compound 1NMPP1],Effect of inhibitor on catecholamine-provoked TrkB phosphorylation,[11],selectively reduced
same,Effect of inhibitor on catecholamine-induced TrkB activation,[12],but not by 1NMPP1
same,Effect of 1NMPP1 pretreatment on protective effect of Compounds I-8 and I-11,[13],blocked the protective effect
same,TrkB tyrosine phosphorylation/activation in mice,[2],had no effect
same,"Effect of 1NMPP1 pretreatment on TrkB activation by 7,8-dihydroxyflavone, L-DOPA and DOPS",[2]; TrkB F616A mice,markedly diminished TrkB activation
same,"Immobility times, 1NMPP1 versus saline treated control groups",[14],No significant difference
same,Effect of inhibitor on protective action of norepinephrine,[15],abolished
"BDNF: Brain-derived neurotrophic factor, natural ligand of TrkB (protein, UniProt P23560 19-247, looked up) Neurotrophic factor BDNF …: APMKEANIRGQGGLAYPGVRTHGTLESVNGPKAGSRGLTSLADTFEHVIEELLDEDQKVRPNEENNKDADLYTSRVMLSSQVPLEPPLLFLLEEYKNYLDAANMSMRVRRHSDPARRGELSVCDSISEWVTAADKKTAVDMSGGTVTVLEKVPVSKGQLKQYFYETKCNPMGYTKEGCRGIDKRHWNSQCRTTQSYVRALTMDSKKRIGWRFIRIDTSCVCTLTIKRGR",Activation of TrkB in BDNF-null cortical neurons,[1],evident activation of TrkB
same,Effect of BDNF-IgG pretreatment on phosphorylation of TrkB induced by the substance,[4],abolished
same,TrkB homodimerization,[16],elicited TrkB homodimerization
same,TrkB tyrosine phosphorylation (immunofluorescent staining),[17],strongly triggered TrkB tyrosine phosphorylation
